Consider two compounds from paper PMC11048033, “Dual Anti-Inflammatory and Anticancer Activity of Novel 1,5-Diaryl Pyrazole Derivatives: Molecular Modeling, Synthesis, In Vitro Activity, and Dynamics Study” (Biomedicines, 2024).

The target of one series is T1, human COX-1 (Homo sapiens, UniProt P23219).
T1 construct: purchased Cayman chemicals 701230
The series can be described thus: In vitro COX-1 enzymatic assay (Cayman COX (human) Inhibitor Screening Assay Kit). The format is biochemical. The note with it: for COX-1 IC50: human COX-1. As to the method:
The ability of the compounds to inhibit COX -2 (IC50 values, µM) was determined by using a “COX (human) Inhibitor Screening Assay Kit” procured from Cayman Chemicals (catalog number 701230). With a slight modification in the method as defined in the reference, the COX-2 inhibition assay was performed. Using the percent conversion of arachidonic acid (AA) to PGH2, the enzyme activity was calculated. By enzyme immunoassay PGF2α, which is produced from PGH2 by reduction with stannous chloride, is calculated. The test compounds’ stock solutions are prepared by dissolving in a minimum amount of DMSO. Human COX-2 (10 µL) in the presence of 10 µL of heme was suspended in 0.1M Tris-HCl buffer (pH 8.0) which contains 2 mM phenol and 5 mM EDTA. This was added to various concentrations of test compounds and, on incubating the solutions at 37 °C for 5 min, 10 µL of AA solution were added. Later, the COX reaction was stopped by adding 1M HCl (50 µL) after 2 min. The intensity of the yellow color which is produced as the product of the enzymatic reaction is determined spectrophotometrically. The percent inhibition was calculated by comparing the compound treated to different control incubations. Celecoxib is utilized as the standard for the assay. The determinations are done in triplicate and the IC50 (µM) was determined using the concentration–inhibition response curve.
During the initiation of the inflammatory process, the COX enzyme plays a vital role in the progression of inflammatory response. The inflammatory mediators that arise due to the action of COX lead to the chemoattraction of neutrophils, macrophages, eosinophils, etc. Due to the involvement of COX in inflammatory diseases, inhibitors of this enzyme can help in designing effective therapeutic agents. […] This was carried out with the help of a COX (human) inhibitor screening assay kit (Item no. 701230) from Cayman chemicals. […] A test substance concentration was considered to be inhibitive when it inhibited human COX-1 or COX-2 by 50%. The compound’s selectivity was measured by its selectivity index values, derived as IC50 (COX-1)/IC50 (COX-2).

The subject of series [1] is A549 (human lung adenocarcinoma) cell line. Nature of the series: MTT anticancer assay, A549. To be noted: for IC50 against A549: MTT. The format is cell-based. As to the method: The in vitro anticancer activity is determined by counting the viable cells that are stained with a vital dye. The MTT technique is an accurate measure of the activity of live cells using mitochondrial dehydrogenases. The target tumor cells A549 (human lung adenocarcinoma) and HEPG2 (human liver) cell lines are procured from the “National Centre for Cell Science” (NCCS, Pune). The sources of reagents like Trypsin, DMEM, Pen strip, and FBS are procured from Himedia. […] The culture medium was prepared, and the MTT assay was performed as per the general procedure described by Mosmann T. et al., [30] and the % viability of the cells was determined.
The target compounds tested for in vitro COX-2 were further checked for in vitro anti-cancer activity against A549 (lung cancer) and HepG2 (liver cancer) cell lines using MTT growth inhibition assay. The compounds were tested for cytotoxicity against both the cell lines at concentrations of 6.25, 12.5, 25, 50, and 100 µg/mL. […] Using the graph where % cell viability is plotted versus concentration, the IC50 values are determined with the help of the dose–response regression equation.

T1 sequence (P23219 24-599): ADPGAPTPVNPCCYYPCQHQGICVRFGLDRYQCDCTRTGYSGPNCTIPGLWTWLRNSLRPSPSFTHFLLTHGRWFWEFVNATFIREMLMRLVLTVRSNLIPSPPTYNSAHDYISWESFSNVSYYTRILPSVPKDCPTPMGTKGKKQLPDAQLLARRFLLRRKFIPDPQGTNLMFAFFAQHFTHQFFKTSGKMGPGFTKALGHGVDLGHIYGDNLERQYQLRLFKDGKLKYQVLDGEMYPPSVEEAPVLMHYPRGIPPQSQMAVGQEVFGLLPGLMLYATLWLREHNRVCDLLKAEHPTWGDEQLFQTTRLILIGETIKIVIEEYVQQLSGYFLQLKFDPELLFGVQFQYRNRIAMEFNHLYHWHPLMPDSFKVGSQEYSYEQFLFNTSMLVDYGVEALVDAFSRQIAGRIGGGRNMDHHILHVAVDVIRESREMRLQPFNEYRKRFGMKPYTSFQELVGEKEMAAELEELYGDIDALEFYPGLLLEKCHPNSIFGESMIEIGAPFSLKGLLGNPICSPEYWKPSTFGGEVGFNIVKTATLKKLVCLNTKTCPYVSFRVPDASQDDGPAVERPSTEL

For the compound `NS(=O)(=O)c1ccc(-n2nc(C(=O)NN=Cc3cccc(Oc4ccccc4)c3)cc2-c2ccc(Cl)cc2)cc1` [Compound T3, 4-(5-(4-chlorophenyl)-3-(2-(3-phenoxybenzylidene) hydrazine-1-carbonyl)-1H-pyrazol-1-yl) benzenesulfonamide], the “% COX-1 Inhibition” value on human COX-1 (0.781 μg/ml) came to 16.22 ± 0.61%; on human COX-1 (1.562 μg/ml), 24.62 ± 2.13%; at human COX-1 (3.125 μg/ml) it was 49.90 ± 2.32%; on human COX-1 (6.25 μg/ml) it was 61.14 ± 3.03%; at human COX-1 (12.5 μg/ml) it was 73.08 ± 1.76%; at human COX-1 (25 μg/ml), 77.09 ± 0.66%. The results for the “% COX-1 Inhibition” value on human COX-1 (50 μg/ml), on human COX-1 (100 μg/ml) and at human COX-1 (250 μg/ml) were 85.41 ± 0.12%, 87.94 ± 0.94% and 89.26 ± 0.71%, respectively. For the same compound, the “COX-1 IC50” value at human COX-1 is 4.655 µM. Besides, in series [1] (A549), the “anti-cancer activity against A549 cell lines (in words)” value is given as “active”. The “% cell viability” value in series [1] (A549, 6.25 µg/ml) amounted to 95.77%; in series [1] (A549, 12.5 µg/ml), 86.16%; in series [1] (A549, 25 µg/ml) it was 60.37%; in series [1] (A549, 50 µg/ml) it was 46.16%; in series [1] (A549, 100 µg/ml), 24.18%. In series [1] (A549 cell lines), the “concentration at which compound was effective (from % inhibitory values)” value came out at 50 µg/mL. The “IC50 against A549” value in series [1] (A549) was found to be 40.14 µM.

Regarding `Cc1cc(C=NNC(=O)c2cc(-c3ccc(Br)cc3)n(-c3ccc(S(N)(=O)=O)cc3)n2)cc(C)c1OCc1ccccc1` [Compound T5, 4-(3-(2-(4-(benzyloxy)-3,5-dimethylbenzylidene) hydrazine-1-carbonyl)-5-(4-bromophenyl)-1H-pyrazol-1-yl) benzenesulfonamide], the “% COX-1 Inhibition” value turned out to be 14.39 ± 2.17% at human COX-1 (0.781 μg/ml); 21.90 ± 2.60% on human COX-1 (1.562 μg/ml); 45.47 ± 1.94% at human COX-1 (3.125 μg/ml); 57.14 ± 2.17% on human COX-1 (6.25 μg/ml); 72.58 ± 3.09% on human COX-1 (12.5 μg/ml); 76.66 ± 1.30% at human COX-1 (25 μg/ml). The results for the “% COX-1 Inhibition” value on human COX-1 (50 μg/ml), on human COX-1 (100 μg/ml) and on human COX-1 (250 μg/ml) were 84.01 ± 1.77%, 88.49 ± 0.36% and 91.75 ± 2.76%, respectively. The “COX-1 IC50” value at human COX-1 is recorded as 5.596 µM. The “% cell viability” value in series [1] (A549, 6.25 µg/ml) is listed as 97.15%; in series [1] (A549, 12.5 µg/ml) it was 92.32%; in series [1] (A549, 25 µg/ml) it was 72.36%; in series [1] (A549, 50 µg/ml) it was 62.43%; in series [1] (A549, 100 µg/ml) it was 30.52%. The “IC50 against A549” value in series [1] (A549) stood at 60.95 µM.
